Laboratory results as given in publication PMC4782163, “A Novel Pentapeptide Targeting Integrin β3-Subunit Inhibits Platelet Aggregation and Its Application in Rat for Thrombosis Prevention” (Frontiers in Pharmacology, 2016).
Like-named read-outs stand apart in the source and are kept apart here. Where a SMILES comes first, the peptide text is derived from it.

Columns and labels:
Kunming mice = test system: Kunming mice
Experimental: Kunming mice (n = 6 for each group) were intravenously injected with different concentrations of P1Cm, ranging from 0.075 to 6 mmol/kg (10x IC90), or tirofiban ranging from 0.025 to 2 mmol/kg (10x IC90). Blood pressure and breath were monitored after injection, and the mesentery were observed under microscope after the animals were sacrificed. Mortality within the next 3 days was recorded.

plasma coagulation = test: Coagulation parameters in plasma (FIB, TT, PT, APTT)
[1] = test system: carotid arterial thrombosis; test: Ferric chloride-induced carotid arterial thrombosis model (CDFI, pathology); format: in vivo, rat; settings: 0.15 mmol/kg tail vein, Wistar rats, n = 6, mean ± SD
Experimental: Thirty male Wistar rats (250–300 g) were randomly divided into five groups: high-, middle-, and low-dose treated groups of P1Cm, a saline group, and a tirofiban group (n = 6 per group). The rats were operated on the right common carotid artery (Bird et al., [2008]). Briefly, the rat was first anesthetized by an intraperitoneal injection of ketamine (100 mg/kg). The fascia was bluntly dissected to expose the right common carotid artery immediately after a dosage of 0.15, 0.30, or 0.45 mmoL/kg of P1Cm, 0.15 mmoL/kg of tirofiban, or an equal volume of saline applied accordingly via tail vein injection. A 3 × 4 mm piece of filter paper saturated with ferric chloride (10% solution) was placed under the right carotid artery for 20 min and then removed. Thrombus size and blood flow were detected by color Doppler flow imaging (CDFI) (13 MHz phased-array transducer, LOGIQ S6 Color Doppler Ultrasonographer, GE, USA; Chua et al., [2012]). The animals were kept anesthetized during the CDFI measurements.
To obtain fresh samples immediately after measurement, the animals were sacrificed through an intravenous injection of air, and the injured carotid artery was collected for pathological examination. Carotid artery samples were fixed with 10% neutral buffered formalin and embedded in paraffin wax for routine histological analysis with hematoxylin and eosin staining. Morphometric analysis was carried out using a Leica Q500/W microscope (Leica Microsystems, Wetzlar, Germany). The antithrombosis effect was evaluated by calculating the percentage of carotid artery area covered by the thrombus (Hosokawa et al., [2011]).

[2] = test system: artery-vein shunt thrombus formation; test: Artery-vein shunt thrombosis model; format: in vivo, rat
Experimental: Fifty male Wistar rats (250–300 g) were randomly divided into five groups: high-, middle-, and low-dose groups of P1Cm, a saline group, and a tirofiban group (n = 10 per group). The animals were treated with the same concentrations as in the previous thrombosis model, 0.15, 0.30, or 0.45 mmoL/kg of P1Cm, 0.15 mmoL/kg of tirofiban, or an equal volume of saline by tail vein injection after being anesthetized by an intraperitoneal injection of ketamine (100 mg/kg). The operation was carried out as previously reported (Sato et al., [1998]; Jing et al., [2011]). Briefly, the right carotid and left jugular veins were separated. An 8 cm silk thread was placed inside a polyethylene tube filled with heparin sodium solution (50 IU/mL). The right carotid and left jugular veins were connected with the tube. One end of the tube containing the thread was inserted into the left jugular vein, and the other end was inserted into the right carotid artery. Blood was allowed to flow from the right carotid artery to the left jugular vein through the polyethylene tube for 15 min. The tube was then removed, and the weight of the attached wet thrombus on the thread was measured immediately. The rats were sacrificed through an intravenous injection of air.

[3] = dosage IC50 (P1Cm 0.075, tirofiban 0.025 mmol/kg), i.v., n = 6, within 3 days
[4] = dosage IC90, i.v., n = 6, within 3 days

SMILES | Mortality (Kunming mice; [3]) | Mortality (Kunming mice; [4]) | Mortality (Kunming mice; mouse, in vivo, iv) | Mortality (Kunming mice; dosage 10x IC90 (P1Cm 6, tirofiban 2 mmol/kg), i.v., n = 6, within 3 days) | Effect on coagulation parameters (plasma coagulation; 0.15 mM, P < 0.05) | FIB (plasma coagulation; tirofiban group (0.15 mM), 5 min 37°C) | PSFV (peak systolic flow velocity) [1] | Thrombosis SIZE/area [1] | VSR (vascular stenosis rate) [1] | EMW (thrombosis wet weight) ([2]; 0.15 mmol/kg tail vein, Wistar rats, 15 min shunt, n = 10, mean ± SD) | Decrease of thrombus weight vs saline group ([2]; 0.15 (mM in the source), rats)
CC[C@H](C)[C@H](N)C(=O)N[C@@H](CCCNC(=N)N)C(=O)N[C@H](C(=O)N1CCC[C@H]1C(=O)N[C@@H](CCCCN)C(=O)O)[C@@H](C)O [Peptide P1Cm] (H-IRTPK-OH) | 0 | 0 | 0 |  |  |  |  |  |  |  | 
CCCCS(=O)(=O)N[C@@H](Cc1ccc(OCCCCC2CCNCC2)cc1)C(=O)O [Tirofiban] | 0 | 0/6 |  | 2/6 | apparently inhibited the coagulation and affected the parameters | 4.23 ± 0.71 g/L | 84.2 ± 3.50 cm/s | 0.007 ± 0.001^* cm^2 | 28.25 ± 5.83 % | 27.51 ± 4.03 mg | 39.92%
